Publication PMC8588467, “Rational Design 2-Hydroxypropylphosphonium Salts as Cancer Cell Mitochondria-Targeted Vectors: Synthesis, Structure, and Biological Properties” (Molecules, 2021)
Read-outs that look alike come from different tables or passages of the source.

How the values were obtained:
HuTu-80 cells [1] = assay: Mitochondrial membrane potential, JC-10 flow cytometry; assay type: cell-based, human; conditions: for % cells with J-aggregate (red, high membrane potential) / % cells with J-monomer (green, decreased membrane potential): JC-10; for effect on mitochondrial membrane potential: more pronounced with increase of concentration up to IC50
Description: Apoptosis induction by 3a, b, k, j and 4c through the mitochondrial pathway and HuTu-80 cell line was studied by flow cytometry using the fluorescent dye JC-10 from the Mitochondria Membrane Potential Kit. JC-10 accumulated in the mitochondrial matrix and formed aggregates (J-aggregate) with red fluorescence in normal cells with a high mitochondrial membrane potential. The membrane potential decreased in apoptotic cells. JC-10 started to diffuse out from the mitochondria and converts to the monomeric form (J-monomer) and emits green fluorescence. This is recorded with a flow cytometer. […] The process became more pronounced with an increase of 3a, b, 3k, j and 4c concentrations up to IC50 (Figure 5 and Figure 6).
Cells were harvested at 2000 rpm for 5 min and then washed twice with ice-cold PBS, followed by resuspension in JC-10 (10 µg/mL) and incubation at 37 °C for 10 min. After the cells were rinsed three times and suspended in PBS, the JC-10 fluorescence was observed by flow cytometry (Guava easy Cyte, MERCK, NJ, USA).

[2] = system: WI38 (diploid human embryo lung); assay: MTT cytotoxicity, normal cells WI38; assay type: cell-based; conditions: mean ± SD, triplicate, read-out: WI38 IC50 (normal cell line)
HuTu-80 cells [3] = assay: Induction of apoptosis, annexin V/propidium iodide flow cytometry; assay type: cell-based, human; conditions: IC50/2, 48-h incubation
Protocol: Apoptosis is one of the most significant mechanisms used for screening new anti-cancer agents. The apoptosis-inducing effect was carried out on lead compounds 3a, b, k, j and 4c showing high selectivity against HuTu-80 cells. The studies were carried out by flow cytometry at concentrations IC50/2 and IC50 (Figure 4). […] The percentage of apoptotic cells in early and late phases was slightly changed with increase compound concentration up to IC50.
HuTu 80 cells at 1 × 10^6 cells/well in a final volume of 2 mL were seeded into six-well plates. After 48 h of incubation, various concentrations of compounds 3a,b and 3k were added to wells.
The cells were harvested at 2000 rpm for 5 min and, then, washed twice with ice-cold PBS, followed by resuspension in binding buffer. Next, the samples were incubated with 5 μL of annexin V-Alexa Fluor 647 (Sigma–Aldrich, St. Louis, MO, USA) and 5 μL of propidium iodide for 15 min at room temperature in the dark. Finally, the cells were analyzed by flow cytometry (Guava easy Cyte, MERCK, Rahway, NJ, USA) within 1 h. The experiments were repeated three times.

[4] = system: A549 (human lung carcinoma); assay: MTT cytotoxicity, A549; assay type: cell-based; conditions: for IC50: mean ± SD, triplicate; for SI A549: IC50 normal cells (WI38) / IC50 cancer cells, ns = no selectivity
[5] = system: T98G glioblastoma cell line; assay: MTT cytotoxicity, T98G; assay type: cell-based, human; conditions: for IC50: MTT, mean ± SD, triplicate; for SI T98G: IC50 normal cells (WI38) / IC50 cancer cells, ns = no selectivity
[6] = system: PC3 (human prostate adenocarcinoma); assay: MTT cytotoxicity, PC3; conditions: for IC50: mean ± SD, triplicate; for SI PC3: IC50 normal cells (WI38) / IC50 cancer cells, ns = no selectivity
[7] = system: HuTu 80 (human duodenal adenocarcinoma); assay: MTT cytotoxicity, HuTu 80; assay type: cell-based; conditions: for IC50: mean ± SD, triplicate; for SI HuTu 80: IC50 normal cells (WI38) / IC50 cancer cells, ns = no selectivity
HuTu-80 cells [8] = assay: Intracellular ROS production, CellROX Deep Red flow cytometry; assay type: cell-based, human; conditions: control 600
Description: Increasing the production of reactive oxygen species (ROS) by compounds characterizes the mitochondrial apoptotic pathway. Mitochondria are a potential source and target of ROS. ROS lead to disruption of mitochondrial functions and, as a consequence, to irreversible cell damage. In this regard, the effect of test compounds in HuTu-80 cells on ROS production, using flow cytometry analysis and CellROX® Deep Red flow cytometry kit was investigated. Data presented in Figure 7 show a significant increase in CellROX® Deep Red fluorescence intensity. This indicates an increase in ROS production in the presence of the tested compounds.
ROS generation was investigated using flow cytometry assay and CellROX® Deep Red flow cytometry kit. For this HuTu 80 cells were harvested at 2000 rpm for 5 min and then washed twice with ice-cold PBS, followed by resuspension in 0.1 mL of medium without FBS, to which was added 0.2 μL of Cell ROX® Deep Red and incubated at 37 °C for 30 min After three times washing the cells and suspending them in PBS, the production of ROS in the cells was immediately monitored using flow cytometer Guava easy Cyte, MERCK, NJ, USA).

[9] = system: M-HeLa (human cervix epitheloid carcinoma); assay: MTT cytotoxicity, M-HeLa; assay type: cell-based; conditions: for IC50: MTT, mean ± SD, triplicate; for SI M-HeLa: IC50 normal cells (WI38) / IC50 cancer cells, ns = no selectivity
[10] = system: MCF-7 (human breast adenocarcinoma); assay: MTT cytotoxicity, MCF-7; assay type: cell-based; conditions: for IC50: mean ± SD, triplicate; for SI MCF-7: IC50 normal cells (WI38) / IC50 cancer cells, ns = no selectivity
[11] = Homo sapiens, read-out: IC50 PC3, MTT

Compound	IC50 ([2]; Homo sapiens, WI-38, MTT) [µM]	IC50 ([4]; Homo sapiens, A549, MTT) [µM]	SI A549 [4]	IC50 ([5]; Homo sapiens, T98G) [µM]	SI T98G [5]	IC50 [6, 11] [µM]	SI PC3 [6]	IC50 ([7]; Homo sapiens, HuTu80, MTT) [µM]	SI HuTu 80 [7]	IC50 ([9]; Homo sapiens, M-HeLa) [µM]	SI M-HeLa [9]	IC50 ([10]; Homo sapiens, MCF7, MTT) [µM]	SI MCF-7 [10]	IC50 ([7]; MTT) [µM]	also measured
OC(CCl)C[P+](c1ccccc1)(c1ccccc1)c1ccccc1 (stereo not drawn) [3a, (3-Chloro-2-hydroxypropyl)triphenylphosphonium trifluoromethanesulfonate]	37.5 ± 3.1	64.4 ± 4.9	ns	64.3 ± 5.3	ns	45 ± 3.6	ns	10.1 ± 0.8	4	66.7 ± 5.5	ns	56.1 ± 4.5	ns		% cells with J-aggregate (red, high membrane potential) (HuTu-80 cells [1]; IC50, 48 h): 39.4%; % cells with J-monomer (green, decreased membrane potential) (HuTu-80 cells [1]; IC50, 48 h): 60.6%; % cells with J-aggregate (red, high membrane potential) (HuTu-80 cells [1]; IC50/2, 48 h): 40.7%; % cells with J-monomer (green, decreased membrane potential) (HuTu-80 cells [1]; IC50/2, 48 h): 59.2%; effect on mitochondrial membrane potential (HuTu-80 cells [1]): decrease the mitochondrial membrane potential; apoptosis induction (HuTu-80 cells [3]): actively induce apoptosis; CellROX Deep Red fluorescence intensity (ROS production) (HuTu-80 cells [8]; IC50, 48 h): 1500; CellROX Deep Red fluorescence intensity (ROS production) (HuTu-80 cells [8]; IC50/2, 48 h): 1000
OC(CBr)C[P+](c1ccccc1)(c1ccccc1)c1ccccc1 (stereo not drawn) [3b, (3-Bromo-2-hydroxypropyl)triphenylphosphonium trifluoromethanesulfonate]	13.8 ± 1.1	> 100	ns	56 ± 4.5	ns	23.3 ± 1.9	ns	3 ± 0.1	5	30.1 ± 2.4	ns	34 ± 2.6	ns		% cells with J-aggregate (red, high membrane potential) (HuTu-80 cells [1]; IC50, 48 h): 48.1%; % cells with J-monomer (green, decreased membrane potential) (HuTu-80 cells [1]; IC50, 48 h): 51.9%; % cells with J-aggregate (red, high membrane potential) (HuTu-80 cells [1]; IC50/2, 48 h): 54.5%; % cells with J-monomer (green, decreased membrane potential) (HuTu-80 cells [1]; IC50/2, 48 h): 45.5%; effect on mitochondrial membrane potential (HuTu-80 cells [1]): decrease the mitochondrial membrane potential; apoptosis induction (HuTu-80 cells [3]): actively induce apoptosis; CellROX Deep Red fluorescence intensity (ROS production) (HuTu-80 cells [8]; IC50, 48 h): 1580; CellROX Deep Red fluorescence intensity (ROS production) (HuTu-80 cells [8]; IC50/2, 48 h): 1200
OC(CF)C[P+](c1ccccc1)(c1ccccc1)c1ccccc1 (stereo not drawn) [3c, (3-Fluoro-2-hydroxypropyl)triphenylphosphonium trifluoromethanesulfonate]	47.3 ± 3.8	> 100	ns	52.1 ± 4.1	ns	53.5 ± 4.2	ns	19.1 ± 1.6	2.5	90.6 ± 8.6	ns	56.5 ± 4.5	ns		
OC(CI)C[P+](c1ccccc1)(c1ccccc1)c1ccccc1 (stereo not drawn) [3d, (2-Hydroxy-3-iodopropyl)triphenylphosphonium trifluoromethanesulfonate]	35.2 ± 2.3	74.2 ± 5.6	ns	64 ± 4.8	ns	39.1 ± 3.1	ns	9.4 ± 0.7	4	50 ± 4.3	ns	88.6 ± 7.1	ns		
COCC(O)C[P+](c1ccccc1)(c1ccccc1)c1ccccc1 (stereo not drawn) [3f, (2-Hydroxy-3-methoxypropyl)triphenylphosphonium trifluoromethanesulfonate]			ns		ns		ns		1.5		ns		ns	23.6 ± 1.8	IC50 ([2]; MTT): 35.6 ± 2.6 µM; IC50 ([4]; MTT): 39 ± 3 µM; IC50 [5]: 60.4 ± 4.4 µM; IC50 ([6]; read-out: IC50 PC3, MTT): 55.2 ± 4.5 µM; IC50 [9]: 56.2 ± 4.7 µM; IC50 ([10]; MTT): 60.7 ± 4.9 µM
CCOCC(O)C[P+](c1ccccc1)(c1ccccc1)c1ccccc1 (stereo not drawn) [3g, (3-Ethoxy-2-hydroxypropyl)triphenylphosphonium trifluoromethanesulfonate]	30.1 ± 2.3	42.2 ± 3.2	ns	62.9 ± 4.6	ns	48.9 ± 3.9	ns		1.6	63.7 ± 5.2	ns	66.8 ± 5.3	ns	18.4 ± 1.5	
OC(COCC(F)(F)C(F)F)C[P+](c1ccccc1)(c1ccccc1)c1ccccc1 (stereo not drawn) [3h, (2-Hydroxy-3-(2,2,3,3-tetrafluoropropoxy)propyl)triphenylphosphonium trifluoromethanesulfonate]	43.7 ± 3.5	34.3 ± 2.6	ns	63.4 ± 4.8	ns	48.7 ± 3.7	ns	28.9 ± 2.1	ns	100 ± 8.6	ns	64.4 ± 5	ns		
C=CCOCC(O)C[P+](c1ccccc1)(c1ccccc1)c1ccccc1 (stereo not drawn) [3i, (3-(Allyloxy)-2-hydroxypropyl)triphenylphosphonium trifluoromethanesulfonate]			ns		ns		ns		5		ns		ns	7.1 ± 0.06	IC50 ([2]; MTT): 34.2 ± 2.7 µM; IC50 ([4]; MTT): 41 ± 3.3 µM; IC50 [5]: 50.4 ± 4 µM; IC50 ([6]; read-out: IC50 PC3, MTT): 71.8 ± 6.6 µM; IC50 [9]: 60.8 ± 5.2 µM; IC50 ([10]; MTT): 70.5 ± 5.6 µM
CCCCCCCCCCCCCCCCCC(=O)OCC(O)C[P+](c1ccccc1)(c1ccccc1)c1ccccc1 (stereo not drawn) [3l, (2-Hydroxy-3-stearoyloxy-propyl)triphenylphosphoniumtrifluoromethanesulfonate]	50 ± 3.9	75.1 ± 5.7	ns	55.9 ± 5	ns	53.8 ± 4.4	ns	45 ± 3.5	ns	59.2 ± 5.1	ns	52.8 ± 4.2	ns		
COCC(O)C[P+](c1ccccc1)(c1ccccc1)c1ccccc1 (stereo not drawn) [4a]	36.5 ± 2.8	36 ± 2.8	ns	55.3 ± 4.4	ns	50.3 ± 4	ns	26.7 ± 2.1	1.4	57.3 ± 4.7	ns	75.7 ± 5.9	ns		
CCOCC(O)C[P+](c1ccccc1)(c1ccccc1)c1ccccc1.[I-] (stereo not drawn) [4b, (3-Ethoxy-2-hydroxypropyl)triphenylphosphonium iodide]			ns		ns		ns		7		ns		ns	3.4 ± 0.3	IC50 ([2]; MTT): 22.9 ± 1.9 µM; IC50 ([4]; MTT): 39.1 ± 3.1 µM; IC50 [5]: 49.7 ± 4 µM; IC50 ([6]; read-out: IC50 PC3, MTT): 42.4 ± 3.3 µM; IC50 [9]: 68.4 ± 5.9 µM; IC50 ([10]; MTT): 60.3 ± 4.7 µM
